Assay results published in doi:10.1101/2023.12.04.569845, “Identification of 4-(6-((2-methoxyphenyl)amino)pyrazin-2-yl)benzoic acids as CSNK2A inhibitors with antiviral activity and improved selectivity over PIM3” (bioRxiv, 2023).
Where two headings read alike, the source gives them in different places. Each block holds one compound with its values, some of them ahead of it.

What was measured:
Assay in all cases: biochemical
Design in all cases: Thermal shift (DSF, SYPRO Orange) Tm shift of recombinant kinase domains at 10 uM compound
NEK2 = target: T1, NEK2 (Homo sapiens, UniProt P51955)
T1 sequence (P51955 1-445): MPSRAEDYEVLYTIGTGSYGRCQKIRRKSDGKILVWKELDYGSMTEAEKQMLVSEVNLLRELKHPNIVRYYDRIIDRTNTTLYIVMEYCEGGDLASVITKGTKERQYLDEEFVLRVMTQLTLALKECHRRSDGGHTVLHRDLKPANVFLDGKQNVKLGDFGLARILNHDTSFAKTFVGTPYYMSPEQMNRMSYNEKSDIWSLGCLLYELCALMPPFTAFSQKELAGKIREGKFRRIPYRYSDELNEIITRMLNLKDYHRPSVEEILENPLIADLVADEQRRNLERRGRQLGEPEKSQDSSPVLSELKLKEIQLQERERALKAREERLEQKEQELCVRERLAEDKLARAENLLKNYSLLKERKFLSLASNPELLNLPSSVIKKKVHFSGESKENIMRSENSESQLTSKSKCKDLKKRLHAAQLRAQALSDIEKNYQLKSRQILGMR

DMPK1 = target: T2, DMPK1 (Homo sapiens, UniProt Q09013)
T2 construct: gene DMPK
T2 sequence (Q09013 1-629): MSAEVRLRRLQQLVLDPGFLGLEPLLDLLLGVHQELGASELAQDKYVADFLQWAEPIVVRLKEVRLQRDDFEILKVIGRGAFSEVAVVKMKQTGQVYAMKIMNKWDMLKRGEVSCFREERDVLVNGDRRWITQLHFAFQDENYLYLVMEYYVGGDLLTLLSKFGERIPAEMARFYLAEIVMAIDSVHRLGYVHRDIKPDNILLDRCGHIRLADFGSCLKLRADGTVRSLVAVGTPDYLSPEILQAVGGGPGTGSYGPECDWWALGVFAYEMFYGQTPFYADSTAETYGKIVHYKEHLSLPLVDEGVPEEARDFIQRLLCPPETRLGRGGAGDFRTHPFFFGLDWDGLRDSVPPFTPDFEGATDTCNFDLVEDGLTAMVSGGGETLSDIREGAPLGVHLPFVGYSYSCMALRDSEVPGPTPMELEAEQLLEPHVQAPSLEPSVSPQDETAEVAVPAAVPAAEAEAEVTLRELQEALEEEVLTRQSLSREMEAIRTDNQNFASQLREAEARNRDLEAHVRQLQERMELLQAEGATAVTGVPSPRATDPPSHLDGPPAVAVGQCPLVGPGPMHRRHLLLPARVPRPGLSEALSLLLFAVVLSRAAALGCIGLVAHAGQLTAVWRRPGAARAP

EPHA4 = EPHA4 (Homo sapiens, UniProt P54764)
MAP2K7 = target: T3, MAP2K7 (Homo sapiens, UniProt O14733)
T3 sequence (O14733 1-419): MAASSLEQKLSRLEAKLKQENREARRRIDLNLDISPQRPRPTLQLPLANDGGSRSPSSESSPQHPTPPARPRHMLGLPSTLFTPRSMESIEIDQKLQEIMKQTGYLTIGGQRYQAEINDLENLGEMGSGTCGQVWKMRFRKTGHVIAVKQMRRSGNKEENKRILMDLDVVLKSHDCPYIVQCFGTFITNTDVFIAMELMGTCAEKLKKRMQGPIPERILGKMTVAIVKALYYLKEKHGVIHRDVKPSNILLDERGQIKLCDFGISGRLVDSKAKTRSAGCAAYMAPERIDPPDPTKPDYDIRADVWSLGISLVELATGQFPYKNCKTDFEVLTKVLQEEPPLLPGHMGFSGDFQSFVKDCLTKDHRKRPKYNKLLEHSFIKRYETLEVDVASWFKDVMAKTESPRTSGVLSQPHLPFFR

PLK4 = target: T4, PLK4 (Homo sapiens, UniProt O00444)
T4 sequence (O00444 1-970): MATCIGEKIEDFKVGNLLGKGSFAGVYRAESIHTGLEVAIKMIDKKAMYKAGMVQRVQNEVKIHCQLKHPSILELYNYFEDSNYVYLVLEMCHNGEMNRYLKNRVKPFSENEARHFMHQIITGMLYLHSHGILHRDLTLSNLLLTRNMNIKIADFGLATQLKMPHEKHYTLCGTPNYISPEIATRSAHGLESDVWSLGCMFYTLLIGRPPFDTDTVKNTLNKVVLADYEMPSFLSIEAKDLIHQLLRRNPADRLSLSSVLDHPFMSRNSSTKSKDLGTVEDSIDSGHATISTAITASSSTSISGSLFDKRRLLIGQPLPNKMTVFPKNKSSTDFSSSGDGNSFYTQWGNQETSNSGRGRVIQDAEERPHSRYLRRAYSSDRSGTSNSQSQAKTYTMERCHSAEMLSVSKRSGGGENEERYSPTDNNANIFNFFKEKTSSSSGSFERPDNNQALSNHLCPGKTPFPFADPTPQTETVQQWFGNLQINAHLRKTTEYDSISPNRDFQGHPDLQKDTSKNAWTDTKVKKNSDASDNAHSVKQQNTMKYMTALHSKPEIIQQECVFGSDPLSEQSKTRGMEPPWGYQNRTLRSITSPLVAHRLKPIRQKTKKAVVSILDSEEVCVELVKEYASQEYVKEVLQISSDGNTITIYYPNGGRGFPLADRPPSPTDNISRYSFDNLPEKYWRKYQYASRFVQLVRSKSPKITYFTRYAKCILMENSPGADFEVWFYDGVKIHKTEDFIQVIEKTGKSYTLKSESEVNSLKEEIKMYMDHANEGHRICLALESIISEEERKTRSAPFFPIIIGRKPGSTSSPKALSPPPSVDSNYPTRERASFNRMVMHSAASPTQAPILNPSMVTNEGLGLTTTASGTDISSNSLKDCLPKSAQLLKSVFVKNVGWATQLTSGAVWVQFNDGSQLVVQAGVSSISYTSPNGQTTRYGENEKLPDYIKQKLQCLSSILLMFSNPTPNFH

Sequence of EPHA4 (P54764 whole entry): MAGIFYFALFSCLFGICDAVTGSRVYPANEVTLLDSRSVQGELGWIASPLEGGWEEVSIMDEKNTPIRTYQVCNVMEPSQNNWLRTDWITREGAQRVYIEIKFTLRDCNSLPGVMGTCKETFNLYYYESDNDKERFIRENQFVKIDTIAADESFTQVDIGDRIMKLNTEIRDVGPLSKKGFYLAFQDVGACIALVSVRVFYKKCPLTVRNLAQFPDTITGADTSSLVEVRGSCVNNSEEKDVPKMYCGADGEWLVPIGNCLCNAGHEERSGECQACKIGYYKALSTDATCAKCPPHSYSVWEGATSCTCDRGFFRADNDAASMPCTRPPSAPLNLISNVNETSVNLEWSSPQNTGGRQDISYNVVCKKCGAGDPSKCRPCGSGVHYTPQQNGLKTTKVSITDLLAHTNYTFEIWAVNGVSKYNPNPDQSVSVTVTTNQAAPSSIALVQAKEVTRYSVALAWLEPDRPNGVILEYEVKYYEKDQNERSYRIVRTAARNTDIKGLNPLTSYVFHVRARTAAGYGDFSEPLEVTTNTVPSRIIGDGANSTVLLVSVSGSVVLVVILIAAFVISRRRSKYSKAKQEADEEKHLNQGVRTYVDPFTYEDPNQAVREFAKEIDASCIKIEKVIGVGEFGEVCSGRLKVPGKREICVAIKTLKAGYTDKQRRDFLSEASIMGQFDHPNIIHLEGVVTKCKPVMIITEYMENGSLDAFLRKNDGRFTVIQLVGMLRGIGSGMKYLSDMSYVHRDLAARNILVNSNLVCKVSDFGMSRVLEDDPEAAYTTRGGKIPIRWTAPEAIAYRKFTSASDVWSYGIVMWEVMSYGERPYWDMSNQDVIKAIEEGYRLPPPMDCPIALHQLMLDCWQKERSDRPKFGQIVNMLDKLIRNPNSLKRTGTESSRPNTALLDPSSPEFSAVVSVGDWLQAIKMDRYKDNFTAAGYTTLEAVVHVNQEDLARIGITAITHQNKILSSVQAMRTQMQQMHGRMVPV

ΔTm at 10 µM (NEK2; read-out: 7c): -1 °C
ΔTm at 10 µM (DMPK1; read-out: 7c): 0 °C
ΔTm at 10 µM (EPHA4; read-out: 7c): 1 °C
ΔTm at 10 µM (MAP2K7; read-out: 7c): -1 °C
ΔTm at 10 µM (PLK4; read-out: 7c): 6 °C
SMILES: COc1ccc(OC(C)C)cc1Nc1cncc(-c2ccc(C(=O)O)cc2)n1 [7c]

ΔTm at 10 µM (NEK2; read-out: 6c): -4 °C
ΔTm at 10 µM (DMPK1; read-out: 6c): 0 °C
ΔTm at 10 µM (EPHA4; read-out: 6c): 2 °C
ΔTm at 10 µM (MAP2K7; read-out: 6c): 0 °C
ΔTm at 10 µM (PLK4; read-out: 6c): 10 °C
SMILES: CC(C)Oc1ccc2ccn(-c3cncc(-c4ccc(C(=O)O)cc4)n3)c2c1 [6c]

ΔTm at 10 µM (NEK2; read-out: 2): -2 °C
ΔTm at 10 µM (DMPK1; read-out: 2): 0 °C
ΔTm at 10 µM (EPHA4; read-out: 2): 2 °C
ΔTm at 10 µM (MAP2K7; read-out: 2): 0 °C
ΔTm at 10 µM (PLK4; read-out: 2): 11 °C
SMILES: CC(C)Nc1ccc2cnn(-c3cncc(-c4ccc(C(=O)O)cc4)n3)c2c1 [compound 2, 2]
